Experimental data published in patent US5973188A (priority 1993, dated 1999).

Test system: ADP-induced aggregation of platelets in human PRP
Assay: animal or person
Settings: Platelet, po, read-out: ID50 (dose administered orally that inhibits by 50% the ADP-induced ex vivo aggregation of platelets in human PRP)

Structure (SMILES)	ED50
CCOC(=O)COc1ccc(C(=O)C(C)NC(=O)c2ccc(C(N)=NOC(=O)OCC)cc2)cc1 (racemic) [Example 35, ethyl (Z)-(R,S)-4-[2-[4-[amino-ethoxycarbonyloximino-methyl]-benzoylamino]-propionyl]-phenoxyacetate]	0.5 mg/kg
CCOC(=O)COc1ccc(C(=O)[C@H](C)NC(=O)COC2CCNCC2)cc1 [Example 29, ethyl (S)-4-(2-piperidin-4-yloxyacetylamino-propionyl)-phenoxyacetate]	1 mg/kg
CCOC(=O)N=C(N)c1ccc(C(=O)N[C@@H](Cc2ccc(OC(=O)c3ccccc3N)cc2)C(=O)N2CCC(OCC(=O)OC(C)C)CC2)cc1 (mixture of isomers) [Example 50, (E/Z)-(S)-4-[2-[4-(amino-ethoxycarbonylimino-methyl)-benzoylamino]-3-(4-isopropoxy-carbonylmethoxy-piperidin-1-yl)-3-oxo-propyl]-phenyl 2-amino-benzoate]	1.3 mg/kg
CCOC(=O)COc1ccc(C(=O)[C@H](C)NC(=O)c2ccc(/C(N)=N/O)cc2)cc1 [Example 41, ethyl (Z)-(S)-4-[2-[4-(amino-hydroxyimino-methyl)-benzoylamino]-propionyl]-phenoxyacetate]	0.2 mg/kg
C[C@H](NC(=O)c1ccc(C(=N)N)cc1)C(=O)c1ccc(OCC(=O)OCC2CC2)cc1 [Example 3, cyclopropylmethyl (S)-4-[2-[4-(amino-imino-methyl)-benzoylamino]-propionyl]-phenoxyacetate]	2.7 mg/kg
CCOC(=O)COc1ccc(C(=O)[C@H](COC(C)=O)NC(=O)c2ccc(C(=N)N)cc2)cc1 [Example 24, ethyl (S)-4-[2-[4-(amino-imino-methyl)-benzoylamino]-3-acetoxy-propionyl]-phenoxy-acetate]	2.3 mg/kg
C[C@H](NC(=O)c1ccc(C(=N)N)cn1)C(=O)N1CCC(OCC(=O)OC2CCOCC2)CC1 [Example 63, tetrahydropyran-4-yl (S)-1-[2-(5-amino-imino-methyl-pyridin-2-ylcarbonylamino)-propionyl]-piperidin-4-yloxy-acetate]	1.1 mg/kg
CCOC(=O)N=C(N)c1ccc(C(=O)N[C@@H](Cc2ccc(OC(=O)OCC)cc2)C(=O)N2CCC(OCC(=O)OC(C)C)CC2)cc1 (mixture of isomers) [Example 49, Isopropyl (E/Z)-(S)-1-[2-[4-(amino-ethoxycarbonylimino-methyl)-benzoylamino]-3-(4-ethoxycarbonyloxy-phenyl)-propionyl]-piperidin-4-yloxyacetate]	1.2 mg/kg
CCOC(=O)COc1ccc(C(=O)C(C)NC(=O)c2ccc(C(N)=NO)cc2)cc1 (racemic) [Example 32, ethyl (Z)-(R,S)-4-[2-[4-[amino-hydroxyimino-methyl]-benzoylamino]-propionyl]-phenoxyacetate]	0.2 mg/kg
CCOC(=O)N=C(N)c1ccc(C(=O)N[C@@H](C)C(=O)N2CCC(OCC(=O)OC(C)C)CC2)cc1 (mixture of isomers) [Example 60, isopropyl (E/Z)-(S)-1-[2-[4-(amino-ethoxycarbonylimino-methyl)-benzoylamino]-propionyl]-piperidin-4-yloxyacetate]	0.3 mg/kg
CCOC(=O)COc1ccc(C(=O)[C@H](C)NC(=O)c2ccc(C(=N)NC(=O)OC3CCOCC3)cc2)cc1 [Example 38, ethyl (S)-4-[2-[4-[imino-(tetrahydro-pyran-4-yloxy-carbonylamino)-methyl]-benzoylamino]-propionyl]-phenoxyacetate]	2.9 mg/kg
CC(C)COC(=O)NC(=N)c1ccc(C(=O)CC(C)C(=O)N2CCC(OCC(=O)OC(C)C)CC2)cc1 (racemic) [Example 85, isopropyl (RS)-[1-[4-[4-(Isobutoxycarbonylamino-imino-methyl)-phenyl]-2-methyl-4-oxo-butyryl]-piperidin-4-yloxy]-acetate]	0.4 mg/kg
COCCOC(=O)COc1ccc(C(=O)[C@H](C)NC(=O)c2ccc(C(=N)N)cc2)cc1 [Example 22, 2-methoxy-ethyl (S)-4-[2-[4-(amino-imino-methyl)-benzoylamino]-propionyl]-phenoxyacetate]	1.8 mg/kg
C[C@H](NC(=O)c1ccc(C(=N)N)cc1)C(=O)c1ccc(OCC(=O)OC2CCCCC2)cc1 [Example 4, cyclohexyl (S)-4-[2-[4-(amino-imino-methyl)-benzoylamino]-propionyl]-phenoxyacetate]	2.1 mg/kg
CCOC(=O)COc1ccc(C(=O)C(CSC)NC(=O)c2ccc(C(=N)NC(=O)OCC)cc2)cc1 (racemic) [Example 27, ethyl (R,S)-4-[2-[4-(ethoxycarbonylamino-imino-methyl)-benzoylamino]-3-methylsulphanyl-propionyl]-phenoxyacetate]	4.3 mg/kg
CCOC(=O)N=C(N)c1ccc(C(=O)N[C@@H](Cc2ccc(OC(=O)c3ccccc3OC(C)=O)cc2)C(=O)N2CCC(OCC(=O)OC(C)C)CC2)cc1 (mixture of isomers) [Example 53, (E/Z)-(S)-4-[2-[4-(amino-ethoxycarbonylimino-methyl)-benzoylamino]-3-(4-isopropoxy-carbonylmethoxy-piperidin-1-yl)-3-oxo-propyl]-phenyl 2-acetoxy-benzoate]	1.5 mg/kg
CCOC(=O)NC(=N)c1ccc(C(=O)CCC(=O)N2CCC(OCC(=O)OC(C)C)CC2)cc1 [Example 80, isopropyl [1-[4-[4-(ethoxycarbonylamino-imino-methyl)-phenyl]-4-oxo-butyryl]-piperidin-4-yloxy]-acetate]	0.7 mg/kg
CCOC(=O)COc1ccc(C(=O)[C@H](C)NC(=O)c2ccc(C(=N)NC(=O)Oc3ccccc3)cc2)cc1 [Example 36, ethyl (S)-4-[2-[4-(imino-phenoxycarbonylamino-methyl)-benzoylamino]-propionyl]-phenoxyacetate]	0.5 mg/kg
CCOC(=O)NC(=N)c1ccc(C(=O)N[C@@H](C)C(=O)c2ccc(OCC(=O)OC3CCOCC3)cc2)cc1 [Example 33, tetrahydropyran-4-yl (S)-4-[2-[4-(ethoxycarbonylamino-imino-methyl)-benzoylamino]-propionyl]-phenoxyacetate]	0.6 mg/kg
CCOC(=O)COc1ccc(C(=O)[C@@H](NC(=O)c2ccc(C(=N)N)cc2)[C@@H](C)O)cc1 [Example 20, ethyl (2S,3R)-4-[2-[4-(amino-imino-methyl)-benzoylamino]-3-hydroxy-butyryl]-phenoxyacetate]	2.4 mg/kg
CCOC(=O)N=C(N)c1ccc(C(=O)N[C@@H](Cc2ccc(OC(=O)c3ccco3)cc2)C(=O)N2CCC(OCC(=O)OC(C)C)CC2)cc1 (mixture of isomers) [Example 51, (E/Z)-(S)-4-[2-[4-(amino-ethoxycarbonylimino-methyl)-benzoylamino]-3-(4-isopropoxy-carbonylmethoxy-piperidin-1-yl)-3-oxo-propyl]-phenyl furan-2-carboxylate]	3.9 mg/kg
CCOC(=O)COc1ccc(C(=O)[C@H](C)NC(=O)c2ccc(C(=N)NC(=O)OCCOC)cc2)cc1 [Example 28, ethyl (S)-4-[2-[4-[imino-2-(methoxy-ethoxycarbonylamino)-methyl]-benzoylamino]-propionyl]-phenoxyacetate]	0.3 mg/kg
COc1ccc(C[C@H](NC(=O)c2ccc(CN)cn2)C(=O)N2CCC(OCC(=O)OC(C)C)CC2)cc1 [Example 72, isopropyl (S)-1-[2-(5-aminomethyl-pyridin-2-ylcarbonylamino)-3-(4-methoxy-phenyl)-propionyl]-piperidin-4-yloxyacetate]	2.7 mg/kg
CC(C)OC(=O)COC1CCN(C(=O)[C@H](C)NC(=O)c2ccc(C(N)=NO)cc2)CC1 (mixture of isomers) [Example 76, isopropyl (E/Z)-(S)-1-[2-[4-(amino-hydroxyimino-methyl)-benzoylamino]-propionyl]-piperidin-4-yloxyacetate]	0.2 mg/kg
COc1ccc(C[C@H](NC(=O)c2ccc(C(=N)N)cc2)C(=O)c2ccc(OCC(=O)O)cc2)cc1 [Example 11, (S)-4-[2-[4-(amino-imino-methyl)-benzoylamino]-3-(4-methoxy-phenyl)-propionyl]-phenoxyacetic acid]	3.1 mg/kg
COCCOC(=O)COc1ccc(C(=O)[C@H](C)NC(=O)c2ccc(C(=N)NC(=O)OCCOC)cc2)cc1 [Example 40, 2-methoxy-ethyl (S)-^4-[2-[4-[imino-(2-methoxy-ethoxy-carbonylamino)-methyl]-benzoylamino]-propionyl]-phenoxyacetate]	0.6 mg/kg
CCOC(=O)COc1ccc(C(=O)[C@H](CO)NC(=O)c2ccc(C(=N)N)cc2)cc1 [Example 9, ethyl (S)-4-[2-[4-(amino-imino-methyl)-benzoylamino]-3-hydroxy-propionyl]-phenoxyacetate]	1.4 mg/kg
